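The compound was tested at five concentrations on cells cultured in 96-well plates, with a 48-hour exposure period. Abbreviation: GI50, concentration required for 50% inhibition of growth. At the TGI there is no net growth.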
Experiments:
Assay in all cases: NCI tumour cell line growth inhibition, 48 h
786-0 renal = test system: 786-0 renal
HS 578T breast = test system: HS 578T breast
UACC-257 melanoma = test system: UACC-257 melanoma
MDA-MB-231 breast = test system: MDA-MB-231 breast
SR leukemia = test system: SR leukemia
SNB-75 CNS = test system: SNB-75 CNS
DU-145 prostate = test system: DU-145 prostate
PC-3 prostate = test system: PC-3 prostate
NCI-H23 lung = test system: NCI-H23 lung
ACHN renal = test system: ACHN renal
HCC-2998 colon = test system: HCC-2998 colon
M14 melanoma = test system: M14 melanoma
RPMI-8226 leukemia = test system: RPMI-8226 leukemia
UACC-62 melanoma = test system: UACC-62 melanoma
SNB-19 CNS = test system: SNB-19 CNS
HOP-62 NSCLC = test system: HOP-62 NSCLC
MDA-MB-435 = test system: MDA-MB-435
A549 NSCLC = test system: A549 NSCLC
NCI-H460 lung = test system: NCI-H460 lung
MCF7 breast = test system: MCF7 breast
MALME-3M melanoma = test system: MALME-3M melanoma
SF-539 CNS = test system: SF-539 CNS
IGROV1 ovarian = test system: IGROV1 ovarian
NCI/ADR-RES ovarian = test system: NCI/ADR-RES ovarian
HL-60(TB) leukemia = test system: HL-60(TB) leukemia
A498 renal = test system: A498 renal
RXF 393 renal = test system: RXF 393 renal
HCT-15 colon = test system: HCT-15 colon
SK-MEL-5 melanoma = test system: SK-MEL-5 melanoma
CAKI-1 renal = test system: CAKI-1 renal
SK-OV-3 ovarian = test system: SK-OV-3 ovarian
SN12C renal = test system: SN12C renal
OVCAR-5 ovarian = test system: OVCAR-5 ovarian
MOLT-4 leukemia = test system: MOLT-4 leukemia
SW-620 colon = test system: SW-620 colon
OVCAR-4 ovarian = test system: OVCAR-4 ovarian
KM12 colon = test system: KM12 colon
TK-10 renal = test system: TK-10 renal
HT29 colon = test system: HT29 colon
SF-295 CNS = test system: SF-295 CNS
COLO 205 colon = test system: COLO 205 colon
OVCAR-3 ovarian = test system: OVCAR-3 ovarian
CCRF-CEM leukemia = test system: CCRF-CEM leukemia
NCI-H226 lung = test system: NCI-H226 lung
NCI-H522 lung = test system: NCI-H522 lung
UO-31 renal = test system: UO-31 renal
BT-549 breast = test system: BT-549 breast
OVCAR-8 ovarian = test system: OVCAR-8 ovarian
SK-MEL-28 melanoma = test system: SK-MEL-28 melanoma
U251 CNS = test system: U251 CNS
T-47D breast = test system: T-47D breast
SF-268 CNS = test system: SF-268 CNS

SMILES: O=C(/C=C/c1ccc(Cl)cc1)/C=C/c1cc2ccccc2[nH]c1=O
- GI50 (786-0 renal): 2.02 µM
- TGI (786-0 renal): 4.16 µM
- GI50 (HS 578T breast): 4.14 µM
- TGI (HS 578T breast): 66.6 µM
- GI50 (UACC-257 melanoma): 5.2 µM
- TGI (UACC-257 melanoma): 19.6 µM
- GI50 (MDA-MB-231 breast): 2.64 µM
- TGI (MDA-MB-231 breast): 7.82 µM
- GI50 (SR leukemia): 2.42 µM
- TGI (SR leukemia): 8.19 µM
- GI50 (SNB-75 CNS): 5.79 µM
- TGI (SNB-75 CNS): 24.7 µM
- GI50 (DU-145 prostate): 3.52 µM
- TGI (DU-145 prostate): 11.7 µM
- GI50 (PC-3 prostate): 2.91 µM
- TGI (PC-3 prostate): 13.7 µM
- GI50 (NCI-H23 lung): 4.76 µM
- TGI (NCI-H23 lung): 23.5 µM
- GI50 (ACHN renal): 4.96 µM
- TGI (ACHN renal): 20.3 µM
- GI50 (HCC-2998 colon): 2.02 µM
- TGI (HCC-2998 colon): 3.62 µM
- GI50 (M14 melanoma): 3.11 µM
- TGI (M14 melanoma): 13.4 µM
- GI50 (RPMI-8226 leukemia): 1.29 µM
- TGI (RPMI-8226 leukemia): 4.65 µM
- GI50 (UACC-62 melanoma): 2.8 µM
- TGI (UACC-62 melanoma): 10.5 µM
- GI50 (SNB-19 CNS): 11.3 µM
- TGI (SNB-19 CNS): 24.7 µM
- GI50 (HOP-62 NSCLC): 8.21 µM
- TGI (HOP-62 NSCLC): 26 µM
- GI50 (MDA-MB-435): 2.34 µM
- TGI (MDA-MB-435): 5.63 µM
- GI50 (A549 NSCLC): 3.16 µM
- TGI (A549 NSCLC): 48.9 µM
- GI50 (NCI-H460 lung): 8.52 µM
- TGI (NCI-H460 lung): 28.9 µM
- GI50 (MCF7 breast): 0.923 µM
- TGI (MCF7 breast): 8.45 µM
- GI50 (MALME-3M melanoma): 7.63 µM
- TGI (MALME-3M melanoma): 38.4 µM
- GI50 (SF-539 CNS): 2.88 µM
- TGI (SF-539 CNS): 9.37 µM
- GI50 (IGROV1 ovarian): 2.34 µM
- TGI (IGROV1 ovarian): 5.5 µM
- GI50 (NCI/ADR-RES ovarian): 16.8 µM
- TGI (NCI/ADR-RES ovarian): > 100 µM
- GI50 (HL-60(TB) leukemia): 2.83 µM
- TGI (HL-60(TB) leukemia): 8.39 µM
- GI50 (A498 renal): 5.87 µM
- TGI (A498 renal): 18.8 µM
- GI50 (RXF 393 renal): 2.81 µM
- TGI (RXF 393 renal): 8.88 µM
- GI50 (HCT-15 colon): 2.85 µM
- TGI (HCT-15 colon): 14.6 µM
- GI50 (SK-MEL-5 melanoma): 10.1 µM
- TGI (SK-MEL-5 melanoma): 25.2 µM
- GI50 (CAKI-1 renal): 4.38 µM
- TGI (CAKI-1 renal): 21.8 µM
- GI50 (SK-OV-3 ovarian): 12.2 µM
- TGI (SK-OV-3 ovarian): 32.7 µM
- GI50 (SN12C renal): 3.67 µM
- TGI (SN12C renal): 17.4 µM
- GI50 (OVCAR-5 ovarian): 4.65 µM
- TGI (OVCAR-5 ovarian): 19.6 µM
- GI50 (MOLT-4 leukemia): 3.82 µM
- TGI (MOLT-4 leukemia): 13.8 µM
- GI50 (SW-620 colon): 2.31 µM
- TGI (SW-620 colon): 5.82 µM
- GI50 (OVCAR-4 ovarian): 5.06 µM
- TGI (OVCAR-4 ovarian): 74.3 µM
- GI50 (KM12 colon): 3.11 µM
- TGI (KM12 colon): 10.3 µM
- GI50 (TK-10 renal): 12.3 µM
- TGI (TK-10 renal): 31.8 µM
- GI50 (HT29 colon): 2.5 µM
- TGI (HT29 colon): 6.33 µM
- GI50 (SF-295 CNS): 3.48 µM
- TGI (SF-295 CNS): 13.2 µM
- GI50 (COLO 205 colon): 3.65 µM
- TGI (COLO 205 colon): 11.7 µM
- GI50 (OVCAR-3 ovarian): 2.07 µM
- TGI (OVCAR-3 ovarian): 4.5 µM
- GI50 (CCRF-CEM leukemia): 3.09 µM
- TGI (CCRF-CEM leukemia): 9.74 µM
- GI50 (NCI-H226 lung): 2.59 µM
- TGI (NCI-H226 lung): 11.4 µM
- GI50 (NCI-H522 lung): 1.91 µM
- TGI (NCI-H522 lung): 5.4 µM
- GI50 (UO-31 renal): 4.28 µM
- TGI (UO-31 renal): 20 µM
- GI50 (BT-549 breast): 3.29 µM
- TGI (BT-549 breast): 11.7 µM
- GI50 (OVCAR-8 ovarian): 3.03 µM
- TGI (OVCAR-8 ovarian): 12.9 µM
- GI50 (SK-MEL-28 melanoma): 10 µM
- TGI (SK-MEL-28 melanoma): 26.2 µM
- GI50 (U251 CNS): 1.81 µM
- TGI (U251 CNS): 3.68 µM
- GI50 (T-47D breast): 3.46 µM
- TGI (T-47D breast): 22.7 µM
- GI50 (SF-268 CNS): 3.61 µM
- TGI (SF-268 CNS): 16 µM

— PubChem BioAssay (NCI)
